Results reported in patent US7091202B2, “4-arylspirocycloalkyl-2-aminopyrimidine carboxamide KCNQ potassium channel modulators” (Bristol-Myers Squibb Company, priority 2004, dated 2006).
pEC50: −log10 of the molar value.

molecular target: T1, hQ23 (HEK-293 cell line stably transfected with one of the members of the KCNQ family) (Homo sapiens, UniProt O43525+O43526); test: Thallium flux assay for KCNQ channel blockers (FLIPR, BTC dye); assay type: cell-based; settings: Table 2; thallium flux, HEK-293
T1 construct: expressed in transfected cells; host or cells: HEK-293, stably transfected
How it was run: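 HEK-293 cells stably expressing a KCNQ member, loaded with BTC-AM (2 μM) in chloride-free buffer, pH 7.3; compounds added at 1% DMSO, then Tl2SO4 stimulus on FLIPR (488/540 nm, 60 s). Minimal active concentration set at ≥4 SD above negative control; IC50 from 10-point 1:3 series, single-site logistic fit versus the positive-control blocker.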

T1 sequence (O43526 whole entry): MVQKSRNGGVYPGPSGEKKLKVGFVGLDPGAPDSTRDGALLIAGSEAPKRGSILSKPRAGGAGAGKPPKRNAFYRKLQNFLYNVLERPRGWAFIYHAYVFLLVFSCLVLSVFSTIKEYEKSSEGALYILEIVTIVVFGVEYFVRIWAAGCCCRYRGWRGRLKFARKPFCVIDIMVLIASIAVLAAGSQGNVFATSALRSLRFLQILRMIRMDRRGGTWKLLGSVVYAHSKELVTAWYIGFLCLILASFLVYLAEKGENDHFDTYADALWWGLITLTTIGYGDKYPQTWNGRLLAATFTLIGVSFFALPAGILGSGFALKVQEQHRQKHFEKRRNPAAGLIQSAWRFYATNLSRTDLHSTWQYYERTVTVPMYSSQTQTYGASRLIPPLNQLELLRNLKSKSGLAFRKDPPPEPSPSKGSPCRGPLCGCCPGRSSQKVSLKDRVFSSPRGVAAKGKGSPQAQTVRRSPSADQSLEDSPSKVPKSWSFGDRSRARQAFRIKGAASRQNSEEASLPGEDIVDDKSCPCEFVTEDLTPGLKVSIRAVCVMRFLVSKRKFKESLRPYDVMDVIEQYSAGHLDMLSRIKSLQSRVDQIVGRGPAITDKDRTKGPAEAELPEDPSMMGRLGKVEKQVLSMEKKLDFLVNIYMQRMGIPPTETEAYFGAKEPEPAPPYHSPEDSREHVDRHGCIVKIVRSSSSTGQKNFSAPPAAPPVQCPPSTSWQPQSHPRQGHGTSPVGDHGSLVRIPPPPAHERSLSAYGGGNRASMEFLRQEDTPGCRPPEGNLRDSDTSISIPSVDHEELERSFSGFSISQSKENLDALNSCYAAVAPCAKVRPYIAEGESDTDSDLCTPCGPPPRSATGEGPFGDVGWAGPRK
T1 sequence (O43525 whole entry): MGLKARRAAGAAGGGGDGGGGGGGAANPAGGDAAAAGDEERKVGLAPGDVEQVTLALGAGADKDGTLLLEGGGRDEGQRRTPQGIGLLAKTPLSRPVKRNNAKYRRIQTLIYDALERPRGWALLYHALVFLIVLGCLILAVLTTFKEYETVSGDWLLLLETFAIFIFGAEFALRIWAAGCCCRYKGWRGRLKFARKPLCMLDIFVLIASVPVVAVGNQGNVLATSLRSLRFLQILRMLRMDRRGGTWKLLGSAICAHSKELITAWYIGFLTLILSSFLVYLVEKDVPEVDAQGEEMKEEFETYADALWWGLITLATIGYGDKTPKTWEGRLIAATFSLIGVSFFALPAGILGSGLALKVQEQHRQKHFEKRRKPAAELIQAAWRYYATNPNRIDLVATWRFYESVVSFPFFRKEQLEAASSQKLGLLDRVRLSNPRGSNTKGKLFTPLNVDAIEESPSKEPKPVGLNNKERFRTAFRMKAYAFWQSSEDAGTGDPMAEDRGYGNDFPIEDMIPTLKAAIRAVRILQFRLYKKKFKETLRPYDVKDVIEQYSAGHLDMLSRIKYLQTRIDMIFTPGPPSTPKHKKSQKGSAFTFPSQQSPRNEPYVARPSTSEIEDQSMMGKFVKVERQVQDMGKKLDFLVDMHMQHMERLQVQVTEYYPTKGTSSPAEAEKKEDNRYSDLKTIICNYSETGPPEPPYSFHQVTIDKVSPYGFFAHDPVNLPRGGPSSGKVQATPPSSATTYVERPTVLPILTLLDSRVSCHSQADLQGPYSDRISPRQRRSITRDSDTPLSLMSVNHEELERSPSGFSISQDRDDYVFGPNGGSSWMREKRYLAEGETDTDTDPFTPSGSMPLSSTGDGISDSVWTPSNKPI

SMILES	pEC50
CC1CCN(c2ncc(C(=O)N[C@H](C)c3cccc4ccccc34)c(C3(c4ccccc4)CC3)n2)CC1 [Example 35, 5-pyrimidinecarboxamide, 2-(4-methyl-1-piperidinyl)-N-[(1R)-1-(1-naphthalenyl)ethyl]-4-(1-phenylcyclopropyl)-]	6.67
CC1CCCN(c2ncc(C(=O)NCc3cccc4ccccc34)c(C3(c4ccccc4)CC3)n2)C1 (centres unmarked) [Example 37, 5-pyrimidinecarboxamide, 2-(3-methyl-1-piperidinyl)-N-(1-naphthalenylmethyl)-4-(1-phenylcyclopropyl)-]	6.67
CC1CCN(c2ncc(C(=O)N3CCc4ccccc4C3)c(C3(c4ccccc4)CC3)n2)CC1 [Example 26, isoquinoline, 1,2,3,4-tetrahydro-2-[[2-(4-methyl-1-piperidinyl)-4-(1-phenylcyclopropyl)-5-pyrimidinyl]carbonyl]-]	6.26
CC1CCCN(c2ncc(C(=O)NCc3ccc(Cl)cc3Cl)c(C3(c4ccccc4)CC3)n2)C1 (centres unmarked) [Example 40, 5-pyrimidinecarboxamide, N-[(2,4-dichlorophenyl)methyl]-2-(3-methyl-1-piperidinyl)-4-(1-phenylcyclopropyl)-]	6.49
CC1CCC(Nc2ncc(C(=O)NCc3cccc4ccccc34)c(C3(c4ccccc4)CC3)n2)CC1 (centres unmarked) [Example 36, 5-pyrimidinecarboxamide, 2-[(4-methylcyclohexyl)amino]-N-(1-naphthalenylmethyl)-4-(1-phenylcyclopropyl)-]	6.23
CC1CCN(c2ncc(C(=O)NCc3cccc4ccccc34)c(C3(c4ccccc4)CC3)n2)CC1 [Example 38, 5-pyrimidinecarboxamide, 2-(4-methyl-1-piperidinyl)-N-(1-naphthalenylmethyl)-4-(1-phenylcyclopropyl)-]	6.42

same assay, conditions: Table 3; thallium flux, HEK-293

SMILES	pEC50
O=C(NCc1cccc2ccccc12)c1cnc(NC2CC2)nc1C1(c2ccc(Cl)cc2)CCC1 [Example 60, 5-pyrimidinecarboxamide, 4-[1-(4-chlorophenyl)cyclobutyl]-2-(cyclopropylamino)-N-(1-naphthalenylmethyl)-]	6.21
CC1CCCN(c2ncc(C(=O)NCc3cccc4ccccc34)c(C3(c4ccc(Cl)cc4)CCC3)n2)C1 (centres unmarked) [Example 62, 5-pyrimidinecarboxamide, 4-[1-(4-chlorophenyl)cyclobutyl]-2-(3-methyl-1-piperidinyl)-N-(1-naphthalenylmethyl)-]	7.41

same assay, conditions: hQ23 cells, thallium flux

SMILES	pEC50
CC1CCN(c2ncc(C(=O)NC(C)c3cccc4ccccc34)c(C3(c4ccccc4)CCCC3)n2)CC1 (centres unmarked) [Example 98, 5-pyrimidinecarboxamide, 2-(4-methyl-1-piperidinyl)-N-[1-(1-naphthalenyl)ethyl]-4-(1-phenylcyclopentyl)-]	7.82
CN1CCN(c2ncc(C(=O)NCc3ccc(Cl)cc3Cl)c(C3(c4ccc(Cl)cc4)CCCC3)n2)CC1 [Example 179, 5-pyrimidinecarboxamide, 4-[1-(4-chlorophenyl)cyclopentyl]-N-[(2,4-dichlorophenyl)methyl]-2-(4-methyl-1-piperazinyl)-]	6.27
CCN(Cc1ccccc1)C(=O)c1cnc(N2CCCC(C)C2)nc1C1(c2ccc(F)cc2)CCCC1 (centres unmarked) [Example 229, 5-pyrimidinecarboxamide, N-ethyl-4-[1-(4-fluorophenyl)cyclopentyl]-2-(3-methyl-1-piperidinyl)-N-(phenylmethyl)-]	6.43
CC1CCN(c2ncc(C(=O)N3CCCC(C)C3)c(C3(c4ccccc4)CCCC3)n2)CC1 (centres unmarked) [Example 78, piperidine, 3-methyl-1-[[2-(4-methyl-1-piperidinyl)-4-(1-phenylcyclopentyl)-5-pyrimidinyl]carbonyl]-]	6.11
CCC(C)Nc1ncc(C(=O)NCc2ccc3c(c2)OCO3)c(C2(c3ccccc3)CCCC2)n1 (centres unmarked) [Example 94, 5-pyrimidinecarboxamide, N-(1,3-benzodioxol-5-ylmethyl)-2-[(1-methylpropyl)amino]-4-(1-phenylcyclopentyl)-]	6.52
CC(NC(=O)c1cnc(NC2CCCC2)nc1C1(c2ccc(Cl)cc2)CCCC1)c1ccc(F)cc1 (centres unmarked) [Example 201, 5-pyrimidinecarboxamide, 4-[1-(4-chlorophenyl)cyclopentyl]-2-(cyclopentylamino)-N-[1-(4-fluorophenyl)ethyl]-]	6.23
O=C(NCc1ccc2c(c1)OCO2)c1cnc(NC2CC2)nc1C1(c2ccccc2)CCCC1 [Example 89, 5-pyrimidinecarboxamide, N-(1,3-benzodioxol-5-ylmethyl)-2-(cyclopropylamino)-4-(1-phenylcyclopentyl)-]	6.16
CC1CCCN(c2ncc(C(=O)NCc3ccc(F)cc3F)c(C3(c4ccccc4)CCCC3)n2)C1 (centres unmarked) [Example 118, 5-pyrimidinecarboxamide, N-[(2,4-difluorophenyl)methyl]-2-(3-methyl-1-piperidinyl)-4-(1-phenylcyclopentyl)-]	7.43
CCC(C)Nc1ncc(C(=O)NCc2ccc(Cl)cc2Cl)c(C2(c3ccc(Cl)cc3)CCCC2)n1 (centres unmarked) [Example 183, 5-pyrimidinecarboxamide, 4-[1-(4-chlorophenyl)cyclopentyl]-N-[(2,4-dichlorophenyl)methyl]-2-[(1-methylpropyl)amino]-]	8.00
CCC(C)Nc1ncc(C(=O)N(CC)Cc2ccccc2)c(C2(c3ccc(F)cc3)CCCC2)n1 (centres unmarked) [Example 231, 5-pyrimidinecarboxamide, N-ethyl-4-[1-(4-fluorophenyl)cyclopentyl]-2-[(1-methylpropyl)amino]-N-(phenylmethyl)-]	6.10
CCC(C)Nc1ncc(C(=O)NCc2cc(F)cc(C(F)(F)F)c2)c(C2(c3ccccc3)CCCC2)n1 (centres unmarked) [Example 128, 5-pyrimidinecarboxamide, N-[[3-fluoro-5-(trifluoromethyl)phenyl]methyl]-2-[(1-methylpropyl)amino]-4-(1-phenylcyclopentyl)-]	8.00
O=C(NCc1ccc(Cl)cc1Cl)c1cnc(N2CCCC2)nc1C1(c2ccccc2)CCCC1 [Example 111, 5-pyrimidinecarboxamide, N-[(2,4-dichlorophenyl)methyl]-4-(1-phenylcyclopentyl)-2-(1-pyrrolidinyl)-]	6.72
CN1CCN(c2ncc(C(=O)NCc3cc(F)cc(C(F)(F)F)c3)c(C3(c4ccccc4)CCCC3)n2)CC1 [Example 125, 5-pyrimidinecarboxamide, N-[[3-fluoro-5-(trifluoromethyl)phenyl]methyl]-2-(4-methyl-1-piperazinyl)-4-(1-phenylcyclopentyl)-]	6.43
CC1CCC(Nc2ncc(C(=O)NCc3cccc4ccccc34)c(C3(c4ccccc4)CCCC3)n2)CC1 (centres unmarked) [Example 102, 5-pyrimidinecarboxamide, 2-[(4-methylcyclohexyl)amino]-N-(1-naphthalenylmethyl)-4-(1-phenylcyclopentyl)-]	6.71
O=C(NCc1cccc2ccccc12)c1cnc(NC2CC2)nc1C1(c2ccccc2)CCCC1 [Example 101, 5-pyrimidinecarboxamide, 2-(cyclopropylamino)-N-(1-naphthalenylmethyl)-4-(1-phenylcyclopentyl)-]	6.17
O=C(c1cnc(NC2CCCC2)nc1C1(c2ccccc2)CCCC1)N1CCc2ccccc2C1 [Example 75, isoquinoline, 2-[[2-(cyclopentylamino)-4-(1-phenylcyclopentyl)-5-pyrimidinyl]carbonyl]-1,2,3,4-tetrahydro-]	6.02
CCN(C)C(=O)c1cnc(N2CCCC(C)C2)nc1C1(c2ccc(F)cc2)CCCC1 (centres unmarked) [Example 226, 5-pyrimidinecarboxamide, N-ethyl-4-[1-(4-fluorophenyl)cyclopentyl]-N-methyl-2-(3-methyl-1-piperidinyl)-]	6.30

same assay, conditions: hQ23 cells, thallium flux assay

SMILES	pEC50
O=C(NCc1ccc(Cl)c(Cl)c1)c1cnc(NC2CCCC2)nc1C1(c2ccc(F)cc2)CCCC1 [Example 258, 5-pyrimidinecarboxamide, 2-(cyclopentylamino)-N-[(3,4-dichlorophenyl)methyl]-4-[1-(4-fluorophenyl)cyclopentyl]-]	7.04
CC1CCN(c2ncc(C(=O)NCc3ccc(Cl)c(Cl)c3)c(C3(c4ccc(F)cc4)CCCC3)n2)CC1 [Example 256, 5-pyrimidinecarboxamide, N-[(3,4-dichlorophenyl)methyl]-4-[1-(4-fluorophenyl)cyclopentyl]-2-(4-methyl-1-piperidinyl)-]	8.00
CC1CCCN(c2ncc(C(=O)NC(C)c3ccc(F)cc3)c(C3(c4ccc(F)cc4)CCCC3)n2)C1 (centres unmarked) [Example 284, 5-pyrimidinecarboxamide, 4-[1-(4-fluorophenyl)cyclopentyl]-N-[1-(4-fluorophenyl)ethyl]-2-(3-methyl-1-piperidinyl)-]	7.11
CCC(C)Nc1ncc(C(=O)NCc2cccc3ccccc23)c(C2(c3ccc(F)cc3)CCCC2)n1 (centres unmarked) [Example 252, 5-pyrimidinecarboxamide, 4-[1-(4-fluorophenyl)cyclopentyl]-2-[(1-methylpropyl)amino]-N-(1-naphthalenylmethyl)-]	6.46
CN(C)CCNc1ncc(C(=O)NCc2ccc3c(c2)OCO3)c(C2(c3ccc(F)cc3)CCCC2)n1 [Example 239, 5-pyrimidinecarboxamide, N-(1,3-benzodioxol-5-ylmethyl)-2-[[2-(dimethylamino)ethyl]amino]-4-[1-(4-fluorophenyl)cyclopentyl]-]	6.10
CC1CCC(Nc2ncc(C(=O)NC(C)c3cccc4ccccc34)c(C3(c4ccc(F)cc4)CCCC3)n2)CC1 (centres unmarked) [Example 241, 5-pyrimidinecarboxamide, 4-[1-(4-fluorophenyl)cyclopentyl]-2-[(4-methylcyclohexyl)amino]-N-[1-(1-naphthalenyl)ethyl]-]	8.00
CC1CCC(Nc2ncc(C(=O)NCc3cccc4ccccc34)c(C3(c4ccc(F)cc4)CCCC3)n2)CC1 (centres unmarked) [Example 248, 5-pyrimidinecarboxamide, 4-[1-(4-fluorophenyl)cyclopentyl]-2-[(4-methylcyclohexyl)amino]-N-(1-naphthalenylmethyl)-]	8.00
